Data published in ChEMBL document CHEMBL3046798 (J Agric Food Chem, 2010).
In brackets after ≈: the same amount, converted by molar mass.

Assays:
[1] = tested on: Rotylenchulus reniformis; experiment: Nematicidal activity against Rotylenchulus reniformis (reniform nematode) infested tomato plants plots assessed as reduction in nematode population measured 110 days post dose following field application at 1 to 2 kg of active ingredient/hectare; type: functional; set-up: scale not given: the % may be the effect or the level left
[2] = Drug level in Solanum lycopersicum (tomato) green seeds measured 90 days post dose following field application at 1 kg of active ingredient/hectare
[3] = Drug level in Solanum lycopersicum (tomato) green seeds measured 120 days post dose following field application at 2 kg of active ingredient/hectare
[4] = tested on: Meloidogyne incognita; experiment: Nematicidal activity against root-knot nematode Meloidogyne incognita J2 (root-knot nematode) infested tomato plants plots assessed as reduction in nematode population measured 55 days post dose following field application at 1 to 2 kg of active ingredient/hectare; type: functional; set-up: scale not given: the % may be the effect or the level left
[5] = physchem
[6] = Drug level in Cicer arietinum (chickpea) green seeds measured 100 days post dose following field application at 1 kg of active ingredient/hectare
[7] = tested on: Root; experiment: Drug absorption in Solanum lycopersicum (tomato) roots assessed as mean drug level measured post dose following field application at 1 and 2 kg of active ingredient/hectare
[8] = tested on: Meloidogyne incognita; experiment: Nematicidal activity against root-knot nematode Meloidogyne incognita J2 (root-knot nematode) infested chickpea plants plots assessed as reduction in nematode population measured 55 days post dose following field application at 1 to 2 kg of active ingredient/hectare; type: functional; set-up: scale not given: the % may be the effect or the level left
[9] = tested on: Rotylenchulus reniformis; experiment: Nematicidal activity against Rotylenchulus reniformis (reniform nematode) infested in tomato plants plots assessed as reduction in nematode population measured 55 days post dose following field application at 1 to 2 kg of active ingredient/hectare; type: functional; set-up: scale not given: the % may be the effect or the level left
[10] = Cmax in Cicer arietinum (chickpea) shoots measured 15 days post dose following field application at 1 and 2 kg of active ingredient/hectare; type: ADME, Shoot; settings: other: field application
[11] = Drug level in Cicer arietinum (chickpea) green seeds measured 90 days post dose following field application at 1 kg of active ingredient/hectare
[12] = Drug level in Solanum lycopersicum (tomato) green seeds measured 100 days post dose following field application at 1 kg of active ingredient/hectare
[13] = Toxicity in Rattus norvegicus (rat); settings: in vivo
[14] = tested on: Meloidogyne incognita; experiment: Nematicidal activity against root-knot nematode Meloidogyne incognita J2 (root-knot nematode) infested tomato plants plots assessed as reduction in nematode population measured 110 days post dose following field application at 1 to 2 kg of active ingredient/hectare; type: functional; set-up: scale not given: the % may be the effect or the level left
[15] = tested on: Meloidogyne incognita; experiment: Nematicidal activity against root-knot nematode Meloidogyne incognita J2 (root-knot nematode) infested chickpea plants plots assessed as reduction in nematode population measured 110 days post dose following field application at 1 to 2 kg of active ingredient/hectare; type: functional; set-up: scale not given: the % may be the effect or the level left
[16] = tested on: Rotylenchulus reniformis; experiment: Nematicidal activity against Rotylenchulus reniformis (reniform nematode) infested chickpea plants plots assessed as reduction in nematode population measured 110 days post dose following field application at 1 to 2 kg of active ingredient/hectare; type: functional; set-up: scale not given: the % may be the effect or the level left
[17] = tested on: Root; experiment: Drug translocation in Solanum lycopersicum (tomato) roots assessed as mean drug level measured post dose following field application at 1 and 2 kg of active ingredient/hectare
[18] = Cmax in Solanum lycopersicum (tomato) shoots measured 30 days post dose following field application at 1 and 2 kg of active ingredient/hectare; type: ADME, Shoot; settings: other: field application
[19] = Drug level in Solanum lycopersicum (tomato) green seeds measured 100 days post dose following field application at 2 kg of active ingredient/hectare
[20] = Drug level in Cicer arietinum (chickpea) green seeds measured 100 days post dose following field application at 2 kg of active ingredient/hectare
[21] = tested on: Rotylenchulus reniformis; experiment: Nematicidal activity against Rotylenchulus reniformis (reniform nematode) infested chickpea plants plots assessed as reduction in nematode population measured 55 days post dose following field application at 1 to 2 kg of active ingredient/hectare; type: functional; set-up: scale not given: the % may be the effect or the level left
[22] = Drug level in Cicer arietinum (chickpea) green seeds measured 90 days post dose following field application at 2 kg of active ingredient/hectare
[23] = Drug level in Solanum lycopersicum (tomato) green seeds measured 90 days post dose following field application at 2 kg of active ingredient/hectare
[24] = Drug absorption in Solanum lycopersicum (tomato) roots measured 30 days post dose following field application at 1 and 2 kg of active ingredient/hectare
[25] = Drug level in Solanum lycopersicum (tomato) green seeds measured 120 days post dose following field application at 1 kg of active ingredient/hectare
[26] = Drug level in Cicer arietinum (chickpea) roots measured 15 days post dose following field application at 1 and 2 kg of active ingredient/hectare; type: ADME, Root; settings: other: field application, read-out: Drug uptake
[27] = Cmax in Cicer arietinum (chickpea) shoots measured 45 days post dose following field application at 1 and 2 kg of active ingredient/hectare; type: ADME, Shoot; settings: other: field application
[28] = in vivo; settings: solanum lycopersicum
[29] = in vivo; settings: cicer arietinum, Shoot
[30] = Drug absorption in Cicer arietinum (chickpea) roots measured 45 days post dose following field application at 1 and 2 kg of active ingredient/hectare; settings: Root
[31] = Drug level in Cicer arietinum (chickpea) green seeds measured 120 days post dose following field application at 2 kg of active ingredient/hectare
[32] = Drug level in Cicer arietinum (chickpea) green seeds measured 120 days post dose following field application at 1 kg of active ingredient/hectare
[33] = Drug level in Solanum lycopersicum (tomato) roots measured 15 days post dose following field application at 1 and 2 kg of active ingredient/hectare; type: ADME, Root; settings: other: field application, read-out: Drug uptake

| Compound | Activity [1] [%] | concentration at 2160 h ([2]; green seeds) [ng/g] | concentration at 2880 h [3] [ng/g] | Activity [4] [%] | solubility ([5]; buffer) [mg/mL] | concentration at 2400 h ([6]; green seeds) [ng/g] | Drug absorption [7] [µg/g] | Activity [8] [%] | Activity [9] [%] | concentration at 2160 h ([11]; green seeds) [ng/g] | concentration at 2400 h [12] [ng/g] | LD50 [13] [mg/kg] | Activity [14] [%] | Activity [15] [%] | Activity [16] [%] | Drug transport [17] [µg/g] | concentration at 2400 h [19] [ng/g] | concentration at 2400 h ([20]; green seeds) [ng/g] | Activity [21] [%] | concentration at 2160 h ([22]; green seeds) [ng/g] | other results |
| --- | --- | --- | --- | --- | --- | --- | --- | --- | --- | --- | --- | --- | --- | --- | --- | --- | --- | --- | --- | --- | --- |
| CCOP(=O)(SC(C)CC)SC(C)CC (stereo unspecified) [CADUSAFOS] | 83 | 21 | 3 | 57 | 0.248 (≈ 917 µM) | 3 | 2.18 | 66 | 39 | 9 | 6 | 37.1 | 60 | 79 | 45 | 0.25 | 10 | 5 | 49 | 16 | Cmax [10]: 340 ng/g; Cmax [18]: 440 ng/g; concentration at 2160 h ([23]; green seeds): 40 ng/g; concentration at 720 h ([24]; roots, other: field application): 3230 ng/g; concentration at 2880 h [25]: 2 ng/g |
| CNC(=O)Oc1cccc2c1OC(C)(C)C2 [CARBOFURAN] |  |  |  |  | 0.7 (≈ 3160 µM) |  |  |  |  |  |  | 8 |  |  |  |  |  |  |  |  |  |
| CCCCN(CCCC)SN(C)C(=O)Oc1cccc2c1OC(C)(C)C2 [CARBOSULFAN] | 59 |  |  | 52 |  |  | 0.36 | 33 | 23 |  |  | 209 | 45 | 15 | 23 | 9.52 |  |  | 37 |  | concentration at 360 h [26]: 530 ng/g; Cmax [27]: 24800 ng/g; Cmax at 1080 h ([28]; shoots, other: field application): 31600 ng/g |
| CCOP(=S)(OCC)Oc1ncn(-c2ccccc2)n1 [TRIAZOPHOS] | 31 |  |  | 55 | 0.03 (≈ 95.7 µM) |  |  | 63 | 30 |  |  | 68 | 38 | 44 | 30 |  |  |  | 38 |  | concentration at 2160 h [2]: 2 ng/g; concentration at 2400 h [6]: 4 ng/g; Drug absorption ([7]; Root): 2.77 µg/g; Cmax at 720 h [29]: 250 ng/g; concentration at 2160 h [11]: 11 ng/g; Drug transport ([17]; Root): 0.14 µg/g; concentration at 1080 h [30]: 1720 ng/g; concentration at 2400 h [20]: 7 ng/g; concentration at 2160 h [22]: 18 ng/g; concentration at 2160 h [23]: 4 ng/g; concentration at 720 h ([24]; Root): 7220 ng/g; Cmax at 1080 h ([28]; Shoot): 630 ng/g |
| CCOP(=O)(NC(C)C)Oc1ccc(SC)c(C)c1 (stereo unspecified) [PHENAMIPHOS] |  |  |  |  |  |  |  |  |  |  |  | 16 |  |  |  |  |  |  |  |  |  |
| CCOP(=S)(OCC)SCSCC [PHORATE] | 45 | 14 | 4 | 45 |  | 8 | 1.45 | 44 | 36 | 20 | 10 | 3.2 | 17 | 1 | 0.9 | 0.41 | 14 | 19 | 28 | 56 | solubility ([5]; water): 0.05 mg/mL (≈ 192 µM); concentration at 2880 h [31]: 6 ng/g; concentration at 2880 h [32]: 3 ng/g; concentration at 360 h [26]: 2310 ng/g; concentration at 360 h [33]: 1690 ng/g; concentration at 2160 h ([23]; green seeds): 22 ng/g; Cmax [27]: 680 ng/g; concentration at 2880 h [25]: 3 ng/g |
